# Test results published in US20210116454A1, “METHODS FOR TREATING A HEMATOLOGICAL CANCER AND THE USE OF COMPANION BIOMARKERS FOR 2-(2,6-DIOXOPIPERIDIN-3-YL)-4-((2-FLUORO-4-((3-MORPHOLINOAZETIDIN-1-YL)METHYL)BENZYL)AMINO)ISOINDOLINE-1,3-DIONE” (CELGENE CORPORATION, priority 2019, published 2021).
# Tests used:
# [1] = tested on: KARPAS-422-Cas9 and SU-DHL-4-Cas9 knock-out cells; assay: Flow cytometry-based cellular competition assay in substrate knock-out cells; format: cell-based; settings: 0.1, 1, 10 nM
# Description: Compound 1 induces autonomous cell killing activity in DLBCL cells in a cereblon-dependent manner. To investigate the consequence of loss of a single cereblon substrate, CRISPR/Cas9-mediated knockout of a cereblon substrate coupled with a flow cytometry-based cellular competition assay was utilized to assess relative cell fitness upon gene knock-out in six DLBCL cell lines: KARPAS-422, U-2932, RIVA, SU-DHL-16, HT, and SU-DHL-4 (FIG. 7, Panel A). To perform the flow cytometry-based competition assay, stable Cas9-expressing DLBCL cells were transduced with a control non-targeting sgRNA construct containing a GFP reporter (sgNT-1-GFP), or with a sgRNA construct targeting a gene of interest containing an RFP reporter (sgRNA-RFP). For targeted knock-out of each gene, two sgRNA sequences were used to knock-out Ikaros (sgIKZF1-1, sgIKZF1-2), Aiolos (sgIKZF3-1, sgIKZF3-2), and ZFP91 (sgZFP91-1, sgZFP91-3). For controls, two non-targeting sgRNAs (sgNT-1, sgNT-2), a sgRNA targeting a non-coding region of the genome (sgNC-1), and a sgRNA targeting an established essential gene ETF1 (sgETF1-1) were included. Following transduction with sgRNAs, cells were washed and mixed at a 1:1 ratio and the percentage of GFP^+ and RFP^+ cells was measured every three days for eighteen days (FIG. 7, panel B). […]
# [2] = tested on: bone marrow CD34+ cells from healthy donors; assay: Ex vivo maturation of myeloid progenitors to neutrophils (flow cytometry); format: cell-based
# Protocol: The effects of Compound 1 on maturation of myeloid progenitors to neutrophils were assessed in ex vivo cultures of bone marrow CD34+ cells from healthy donors and different dosing schedules were evaluated to gain insight into the schedule dependence of these events.
# Myeloid differentiation was induced by adding stem cell factor (SCF), FMS-related tyrosine kinase 3 ligand (FLT3-L), and granulocyte colony stimulating factor (G-CSF) to culture media. Cell differentiation in the presence or absence of Compound 1 was evaluated at prespecified time points by flow cytometry as the percentage of cells in 5 subpopulations: (1) hematopoietic stem cells (HSC, CD34+/CD33−/CD11b−); (2) Stage I cells (CD34+/CD33+/CD11b−); (3) Stage II cells (CD34−/CD33+/CD11b−); (4) Stage III cells (CD34−/CD33+/CD11b+) and (5) Stage IV cells (CD34−/CD33−/CD11b+) cells (from immature to mature). Differentiation and viability were monitored during the complete assay every two or three days.
# However, the viability of neutrophil precursors exposed to Compound 1 was not affected (FIG. 18).
# Recovery of mature neutrophils after Compound 1 exposure was also evaluated in the system.
structure (smiles),measurement,setting,value
"O=C1CC[C@H](N2C(=O)c3cccc(NCc4ccc(CN5CC(N6CCOCC6)C5)cc4F)c3C2=O)C(=O)N1 [Compound 1, (S)-2-(2,6-dioxopiperidin-3-yl)-4-((2-fluoro-4-((3-morpholinoazetidin-1-yl)methyl)benzyl)amino)isoindoline-1,3-dione]",RFP+/GFP+ ratio relative to DMSO-treated control cells,[1]; sgIKZF1 and sgIKZF3 knock-out cells,dose-dependent decrease
same,dose-dependent decrease in RFP+/GFP+ ratio,[1]; sgZFP91 cells,not observed
same,late-stage maturation of neutrophil progenitors,[2]; 14 or 5 days of exposure,blocked
same,Number of Days in Washout Period Required for Recovery to 50% of Stage IV Cells,"[2]; 5 days treatment, 0.1 nM",0 days
same,Number of Days in Washout Period Required for Recovery to 50% of Stage IV Cells,"[2]; 5 days treatment, 1 nM",1 days
same,Number of Days in Washout Period Required for Recovery to 50% of Stage IV Cells,"[2]; 5 days treatment, 10 nM",1 days
same,Number of Days in Washout Period Required for Recovery to 50% of Stage IV Cells,"[2]; 5 days treatment, 1000 nM",5 days
same,Number of Days in Washout Period Required for Recovery to 50% of Stage IV Cells,"[2]; 14 days treatment, 0.1 nM",0 days
same,Number of Days in Washout Period Required for Recovery to 50% of Stage IV Cells,"[2]; 14 days treatment, 1 nM",0 days
same,Number of Days in Washout Period Required for Recovery to 50% of Stage IV Cells,"[2]; 14 days treatment, 100 nM",4 days
same,Number of Days in Washout Period Required for Recovery to 50% of Stage IV Cells,"[2]; 14 days treatment, 1000 nM",4 days
same,viability of neutrophil precursors,"[2]; Annexin V and 7-AAD, 14 or 5 days exposure",not affected
same,recovery of the proportion of mature neutrophils (Stage IV cells) from its nadir,[2]; after 1 week without Compound 1,≥ 50%
same,recovery of Stage IV cells relative to Stage IV cell population in the DMSO control,"[2]; one week without drug, all tested conditions",at least 50%
